biological target: ROCK (Homo sapiens, UniProt Q13464); assay: ROCK radioactive enzyme assay (33P); assay type: biochemical; details: 13 μM [γ-33P] ATP, 27 μM MBP, 5 nM ROCK, room temperature
Procedure: Compounds are screened for their ability to inhibit ROCK using a standard radioactive enzyme assay. Assays are carried out in a solution containing 100 mM HEPES (pH 7.5), 10 mM MgCl2, 25 mM NaCl, 2 mM DTT and 1.5% DMSO. Final substrate concentrations in the assay are 13 μM [γ-^33P] ATP (25 mCi ^33P ATP/mmol ATP, Perkin Elmer, Cambridge, Mass./Sigma Chemicals, St Louis, Mo.) and 27 μM Myelin Basic Protein (MBP). Final enzyme concentration in the assay is 5 nM ROCK. Assays are carried out at room temperature. 1.5 μl of DMSO stock containing serial dilutions of the compound of the present invention (concentrations ranging from 10 μM to 2.6 nM) is placed in a 96 well plate. 50 μl of Solution 1 (100 mM HEPES (pH 7.5), 10 mM MgCl2, […] [γ-^33P] ATP) is added to the plate. The reaction is initiated by addition of 50 μl of Solution 2 (100 mM HEPES (pH 7.5), 10 mM MgCl2, 4 mM DTT, […] and 10 nM ROCK). After 2 hours the reaction is quenched with 50 μL of 30% trichloroacetic acid (TCA, Fisher) containing 9 mM ATP. Transfer of 140 μL of the quenched reaction to a glass fiber filter plate (Corning, Cat. No. 3511) is followed by washing 3 times with 5% TCA. 50 μL of Optima Gold scintillation fluid (Perkin Elmer) is added and the plates are counted on a Top Count (Perkin Elmer). After removing mean background values for all of the data points the data is fit using Prism software to obtain a Ki(app).
(§1) Table 3 depicts enzyme inhibition data (Ki) for certain exemplary compounds. Compound numbers in Table 3 correspond to those compounds depicted in Table 1.

ROCK, sequence (Q13464 6-553): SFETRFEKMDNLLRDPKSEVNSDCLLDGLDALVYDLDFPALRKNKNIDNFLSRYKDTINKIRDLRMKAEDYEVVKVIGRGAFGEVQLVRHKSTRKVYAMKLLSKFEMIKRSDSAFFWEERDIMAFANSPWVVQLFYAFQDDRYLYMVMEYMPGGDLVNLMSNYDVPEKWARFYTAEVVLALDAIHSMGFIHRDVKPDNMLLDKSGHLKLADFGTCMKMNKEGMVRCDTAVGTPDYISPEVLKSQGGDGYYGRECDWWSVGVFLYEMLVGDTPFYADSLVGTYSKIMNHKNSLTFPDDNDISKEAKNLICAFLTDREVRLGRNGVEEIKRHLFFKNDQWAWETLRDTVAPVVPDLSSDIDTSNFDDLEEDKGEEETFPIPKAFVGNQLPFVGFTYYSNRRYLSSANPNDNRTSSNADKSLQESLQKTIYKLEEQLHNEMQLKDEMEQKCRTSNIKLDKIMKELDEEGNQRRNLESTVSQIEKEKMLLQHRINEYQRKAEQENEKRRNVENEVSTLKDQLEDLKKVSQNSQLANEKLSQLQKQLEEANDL

`CN(C)S(=O)(=O)c1cccc(CC(=O)Nc2cc(-c3n[nH]c4ncccc34)cs2)c1` [Compound 10, 2-(3-Dimethylsulfamoyl-phenyl)-N-[4-(1H-pyrazolo[3,4-b]pyridin-3-yl)-thiophen-2-yl]-acetamide] was tested. Which Ki did it give?
Its Ki is under 0.5 µM.

Which Ki does the source give for `O=C(NCc1ccc(F)cc1)c1cc(-c2n[nH]c3ncccc23)c[nH]1` [Compound 18] here?
Its Ki is under 0.5 µM.

Which Ki does the source give for `O=C(NCc1cccc(OC(F)(F)F)c1)c1cc(-c2n[nH]c3ncccc23)c[nH]1` [Compound 14] here?
The Ki was under 0.5 µM.

How did the Ki turn out when `CS(=O)(=O)Nc1cccc(CC(=O)Nc2cc(-c3n[nH]c4nccnc34)cs2)c1` [Compound 20] was run?
Its Ki is under 0.5 µM.

Which Ki does the source give for `CS(=O)(=O)Nc1ccc(F)c(CC(=O)Nc2cc(-c3n[nH]c4ncccc34)cs2)c1` [Compound 6, 2-(2-Fluoro-5-methanesulfonylamino-phenyl)-N-[4-(1H-pyrazolo[3,4-b]pyridin-3-yl)-thiophen-2-yl]-acetamide] here?
The Ki was under 0.5 µM.

`O=C(Cc1ccccc1)Nc1nc(-c2n[nH]c3ncccc23)cs1` [Compound 2] was tested. Which Ki did it give?
Its Ki is under 0.5 µM.

Which Ki does the source give for `COc1cccc(CC(=O)Nc2nc(-c3n[nH]c4ncccc34)cs2)c1` [Compound 3] here?
The Ki was under 0.5 µM.

`CS(=O)(=O)Nc1cccc(CC(=O)Nc2nc(-c3n[nH]c4ncccc34)cs2)c1` [Compound 5] was tested. Which Ki did it give?
Its Ki is under 0.5 µM.

Which Ki does the source give for `CS(=O)(=O)Nc1cccc(CC(=O)Nc2cc(-c3n[nH]c4ncccc34)cs2)c1` [Compound 8, 2-(3-Methanesulfonylamino-phenyl)-N-[4-(1H-pyrazolo[3,4-b]pyridin-3-yl)-thiophen-2-yl]-acetamide] here?
Its Ki is under 0.5 µM.

How did the Ki turn out when `CC(CO)NC(=O)c1cc(-c2n[nH]c3ncccc23)c[nH]1` (stereo not shown) [Compound 12] was run?
The Ki was 0.5 to 5 µM.

With `COc1cccc(CNC(=O)c2cc(-c3n[nH]c4ncccc34)c[nH]2)c1` [Compound 13] as the compound, how does the Ki read?
The Ki was under 0.5 µM.

With `CS(=O)(=O)Nc1ccc(F)c(CC(=O)Nc2cc(-c3n[nH]c4nccnc34)cs2)c1` [Compound 9, N-(4-(1H-pyrazolo[3,4-b]pyrazin-3-yl)thiophen-2-yl)-2-(5-methsulfonamido-2-fluorophenyl)acetamide] as the compound, how does the Ki read?
Its Ki is under 0.5 µM.

With `O=C(NCc1cccc(F)c1)c1cc(-c2n[nH]c3ncccc23)c[nH]1` [Compound 16] as the compound, how does the Ki read?
The Ki was under 0.5 µM.

With `O=C(NCC1CCCCC1)c1cc(-c2n[nH]c3ncccc23)c[nH]1` [Compound 17] as the compound, how does the Ki read?
Its Ki is under 0.5 µM.

With `CS(=O)(=O)Nc1cccc(CNC(=O)c2cc(-c3n[nH]c4ncccc34)c[nH]2)c1` [Compound 11] as the compound, how does the Ki read?
The Ki was under 0.5 µM.

For `O=C(Cc1cccc(OCCCC2CCNCC2)c1)Nc1cc(-c2n[nH]c3ncccc23)cs1` [Compound 7, 2-(3-(3-Piperidin-4-yl-propoxy)-phenyl)-N-[4-(1H-pyrazolo[3,4-b]pyridin-3-yl)-thiophen-2-yl]-acetamide], which Ki is on record?
Its Ki is under 0.5 µM.

Which Ki does the source give for `O=C(NCc1ccc2c(c1)OCO2)c1cc(-c2n[nH]c3ncccc23)c[nH]1` [Compound 15] here?
The Ki was under 0.5 µM.

How did the Ki turn out when `CCN(CC)S(=O)(=O)c1cccc(CC(=O)Nc2nc(-c3n[nH]c4ncccc34)cs2)c1` [Compound 4] was run?
The Ki was under 0.5 µM.

biological target: ROCK I (AA 6-553) (Homo sapiens, UniProt Q13464); assay: ROCK I coupled enzyme assay (enzyme-linked); assay type: biochemical; details: 45 μM ATP, 200 μM peptide, 45 nM ROCK I, 30° C.
Sequence (Q13464 6-553): as above
Procedure: Compounds are screened for their ability to inhibit ROCK I (AA 6-553) activity using a standard coupled enzyme system (Fox et al. Protein Sci. 7: 2249, 1998). Reactions are carried out in a solution containing 100 mM HEPES (pH 7.5), 10 mM MgCl2, 25 mM NaCl, 2 mM DTT and 1.5% DMSO. Final substrate concentrations in the assay are 45 μM ATP (Sigma Chemicals, St Louis, Mo.) and 200 μM peptide (American Peptide, Sunnyvale, Calif.). Reactions are carried out at 30° C. and 45 nM ROCK I. Final concentrations of the components of the coupled enzyme system are 2.5 mM phosphoenolpyruvate, 350 μM NADH, 30 μg/ml pyruvate kinase and 10 μg/ml lactate dehydrogenase.
as §1

For `O=C(N[C@H](CO)c1ccccc1)c1cc(-c2n[nH]c3ncccc23)c[nH]1` [Compound 1], which Ki is on record?
Its Ki is under 0.5 µM.
